According to patent US20250042853A1, “BICYCLIC COMPOUND AND APPLICATION THEREOF” (BETTA PHARMACEUTICALS CO., LTD, priority 2021, published 2025):

system: VEGFA; assay: VEGFA ELISA assay (IC50); type: cell-based; details: 786-O cells, 24 h, VEGFA in culture supernatant by ELISA; class symbols
Protocol: 786-O cells in the logarithmic growth phase were inoculated into a 96-well plate at a cell concentration of 65,000 cells per ml of culture liquid, 180 μL per well. The compounds were diluted to the corresponding concentrations, and 20 μL of compound solutions of various concentrations were added to the corresponding cell wells, so that the final concentrations of the compounds were 1.5 nM, 4.6 nM, 13.7 nM, 41.2 nM, 123.5 nM, 370.4 nM, 1111.1 nM, 3333.3 nM, and 10000 nM, respectively. After culturing for 24 h, the cell culture supernatant was collected and the VEGFA concentration was determined using an ELISA kit (purchased from Abeam). Finally, the reaction was terminated and the absorbance value of each well was measured at a wavelength of 450 nm using an ELISA reader. The IC50 values were calculated by GraphPadPrism. CellTiter-Glo reagent was used to measure cell viability.

Row | Compound | IC50 [nM]
1 | CS(=O)(=NC#N)c1cn(-c2ccc(F)c(C#N)c2)c2c1[C@H](O)C(F)(F)CC2 (stereo partly drawn) [Example 18, N—(((S)-1-(3-cyano-4-fluorophenyl)-5,5-difluoro-4-hydroxyl-4,5,6,7-tetrahydro-1H-indol-3-yl)(methyl)(oxo)-16-sulfino)cyanamide] | ≤ 500

same assay, conditions: Homo sapiens, 786-0; 786-O cells, 24 h, VEGFA in culture supernatant by ELISA

Row | IC50 [nM] | Compound
2 | 8.3 | OC1c2c(C(F)(F)F)cn(-c3ccc(F)c(CF)c3)c2CCC1(F)F (stereo not drawn) [Example 2, 5,5-difluoro-1-(4-fluoro-3-(fluoromethyl)phenyl)-3-(trifluoromethyl)-4,5,6,7-tetrahydro-1H-indol-4-ol]
3 | 3 | N#Cc1ccc(-n2cc(C(F)(F)F)c3c2CCC(F)(F)[C@H]3O)cc1C(F)F [Example 3, (S)-4-(5,5-difluoro-4-hydroxyl-3-(trifluoromethyl)-4,5,6,7-tetrahydro-1H-indol-1-yl)-2-(difluoromethyl)benzonitrile]
4 | 98 | N#Cc1cc(-n2cc(S(=O)(=O)C(F)F)c3c2CCC(F)(F)[C@H]3O)ccc1F [Example 4, (S)-5-(3-((difluoromethyl)sulfonyl)-5,5-difluoro-4-hydroxyl-4,5,6,7-tetrahydro-1H-indol-1-yl)-2-fluorobenzonitrile]
5 | 72 | CS(=O)(=O)c1cn(-c2ccc(F)c(C(F)F)c2)c2c1[C@H](O)C(F)(F)CC2 [Example 5, (S)-1-(3-(difluoromethyl)-4-fluorophenyl)-5,5-difluoro-3-(methylsulfonyl)-4,5,6,7-tetrahydro-1H-indol-4-ol]
6 | 47 | N#Cc1cc(-n2cc(C(F)(F)C(F)(F)F)c3c2CCC(F)(F)C3O)ccc1F (stereo not drawn) [Example 9, 5-(5,5-difluoro-4-hydroxyl-3-(perfluoroethyl)-4,5,6,7-tetrahydro-1H-indol-1-yl)-2-fluorobenzonitrile]
7 | 537 | CCS(=O)(=O)c1cn(-c2ccc(F)c(C(F)(F)F)c2)c2c1[C@H](O)C(F)(F)CC2 [Example 16, (S)-3-(ethylsulfonyl)-5,5-difluoro-1-(4-fluoro-3-(trifluoromethyl)phenyl)-4,5,6,7-tetrahydro-1H-indol-4-ol]
8 | 39 | CS(=O)(=O)c1cn(-c2ccc(F)c(C(F)(F)F)c2)c2c1[C@H](O)C(F)(F)CC2 [Example 20, (S)-5,5-difluoro-1-(4-fluoro-3-(trifluoromethyl)phenyl)-3-(methylsulfonyl)-4,5,6,7-tetrahydro-1H-indol-4-ol]
9 | 12 | O=S(=O)(c1cn(-c2ccc(F)c(C(F)(F)F)c2)c2c1[C@H](O)C(F)(F)CC2)C(F)F [Example 21, (S)-3-((difluoromethyl)sulfonyl)-5,5-difluoro-1-(4-fluoro-3-(trifluoromethyl)phenyl)-4,5,6,7-tetrahydro-1H-indol-4-ol]
10 | 86 | N#Cc1cc(-n2c(F)c(S(=O)(=O)C(F)F)c3c2CCC(F)(F)[C@H]3O)ccc1F [Example 22, (S)-5-(3-((difluoromethyl)sulfonyl)-2,5,5-trifluoroether-4-hydroxyl-4,5,6,7-tetrahydro-1H-indol-1-yl)-2-fluorobenzonitrile]
11 | 72 | CS(=O)(=O)c1cn(-c2ccc(F)c(Cl)c2)c2c1C(O)C(F)(F)CC2 (stereo not drawn) [Example 24, 1-(3-chloro-4-fluorophenyl)-5,5-difluoro-3-(methylsulfonyl)-4,5,6,7-tetrahydro-1H-indol-4-ol]
12 | 63 | O=S(=O)(c1cn(-c2ccc(F)c(Cl)c2)c2c1C(O)C(F)(F)CC2)C(F)F (stereo not drawn) [Example 25, 1-(3-chloro-4-fluorophenyl)-3-((difluoromethyl)sulfonyl)-5,5-difluoro-4,5,6,7-tetrahydro-1H-indol-4-ol]
13 | 628 | O=S(=O)(c1cn(-c2ccc(F)c(C(F)F)c2)c2c1[C@@H](O)C(F)(F)CC2)C(F)F [Example 26, (R)-1-(3-(difluoromethyl)-4-fluorophenyl)-3-((difluoromethyl)sulfonyl)-5,5-difluoro-4,5,6,7-tetrahydro-1H-indol-4-ol]
14 | 118 | N#Cc1cc(-n2cc(S(=O)(=O)C(F)F)c3c2CCC(F)(F)[C@H]3O)ccc1Cl [Example 28, (S)-2-chloro-5-(3-((difluoromethyl)sulfonyl)-5,5-difluoro-4-hydroxyl-4,5,6,7-tetrahydro-1H-indol-1-yl)benzonitrile]
15 | 174 | CS(=O)(=O)c1cn(-c2ccc(C#N)c(C(F)F)c2)c2c1[C@H](O)C(F)(F)CC2 [Example 29, (S)-4-(5,5-difluoro-4-hydroxyl-3-(methylsulfonyl)-4,5,6,7-tetrahydro-1H-indol-1-yl)-2-(difluoromethyl)benzonitrile]
16 | 45 | O=S(=O)(CF)c1cn(-c2ccc(F)c(C(F)(F)F)c2)c2c1[C@H](O)C(F)(F)CC2 [Example 30, (S)-5,5-difluoro-1-(4-fluoro-3-(trifluoromethyl)phenyl)-3-((fluoromethyl)sulfonyl)-4,5,6,7-tetrahydro-1H-indol-4-ol]
17 | 21 | N#Cc1ccc(-n2cc(S(=O)(=O)C(F)(F)F)c3c2CCC(F)(F)[C@H]3O)cc1C(F)(F)F [Example 31, (S)-4-(5,5-difluoro-4-hydroxyl-3-((trifluoromethyl)sulfonyl)-4,5,6,7-tetrahydro-1H-indol-1-yl)-2-(trifluoromethyl)benzonitrile]

same assay, conditions: Homo sapiens, 786-0; 786-O cells, 24 h, VEGFA in culture supernatant by ELISA; class symbols

Row | IC50 [nM] | Compound
18 | ≤ 500 | N#Cc1cc(-n2cc(C(F)(F)F)c3c2CCC(F)(F)C3O)cc(F)c1F (stereo not drawn) [Example 1, 5-(5,5-difluoro-4-hydroxyl-3-(trifluoromethyl)-4,5,6,7-tetrahydro-1H-indol-1-yl)-2,3-difluorobenzonitrile]
19 | ≤ 500 | N#Cc1cc(-n2cc(S(=O)(=O)C(F)(F)F)c3c2CCC(F)(F)[C@H]3O)ccc1F [Example 10, (S)-5-(5,5-difluoro-4-hydroxyl-3-((trifluoromethyl)sulfonyl)-4,5,6,7-tetrahydro-1H-indol-1-yl)-2-fluorobenzonitrile]
20 | 500 to 1500 | N#CCS(=O)(=O)c1cn(-c2ccc(F)c(C(F)(F)F)c2)c2c1[C@H](O)C(F)(F)CC2 [Example 13, (S)-2-((5,5-difluoro-1-(4-fluoro-3-(trifluoromethyl)phenyl)-4-hydroxyl-4,5,6,7-tetrahydro-1H-indol-3-yl)sulfonyl)acetonitrile]
21 | 500 to 1500 | N#Cc1cc(-n2cc(C(F)(F)C(N)=O)c3c2CCC(F)(F)C3O)ccc1F (stereo not drawn) [Example 15, 2-(1-(3-cyano-4-fluorophenyl)-5,5-difluoro-4-hydroxyl-4,5,6,7-tetrahydro-1H-indol-3-yl)-2,2-difluoroacetamide]
22 | ≤ 500 | N#Cc1cc(-n2cc(C(F)(F)C#N)c3c2CCC(F)(F)C3O)ccc1F (stereo not drawn) [Example 17, 5-(3-(cyanodifluoromethyl)-5,5-difluoro-4-hydroxyl-4,5,6,7-tetrahydro-1H-indol-1-yl)-2-fluorobenzonitrile]
23 | 500 to 1500 | N#CCS(=O)(=O)c1cn(-c2ccc(F)c(C(F)F)c2)c2c1[C@H](O)C(F)(F)CC2 [Example 19, (S)-2-((1-(3-(difluoromethyl)-4-fluorophenyl)-5,5-difluoro-4-hydroxyl-4,5,6,7-tetrahydro-1H-indol-3-yl)sulfonyl)acetonitrile]
24 | ≤ 500 | CS(=O)(=O)c1cn(-c2ccc(Cl)c(C#N)c2)c2c1[C@H](O)C(F)(F)CC2 [Example 27, (S)-2-chloro-5-(5,5-difluoro-4-hydroxyl-3-(methylsulfonyl)-4,5,6,7-tetrahydro-1H-indol-1-yl)benzonitrile]
